In US20230055713A1, “COMPOSITION FOR STRENGTHENING SKIN BARRIER OR MOISTURIZING SKIN COMPRISING TILIANIN” (COSMAX NBT, INC., priority 2021, published 2023):

What was measured:
Type in all cases: in vivo
HAS2 = HAS2 mRNA expression in skin tissue (RT-PCR) of UVB-irradiated hairless mice; conditions: oral administration, 12 weeks, compared to the UVB-treated group
Procedure: (§1) Five-week-old female hairless mice (SKFI-1) were purchased from Orient Bio (Seongnam, Korea) as experimental animals. Diets of feed and water were freely given, and the animals were bred at the Yonsei Laboratory Animal Research Center (YLARC, Seoul, Korea) under conditions of 25° C. and 50 to 60% humidity for 12 hours. The hairless mice were randomly assigned to the following five groups: (i) a control group, (ii) a UVB-irradiated group (UVB), (iii) a UVB+100 mg/kg/day ARE-administered group (ARE100), (iv) a UVB+250 mg/Kg/day ARE-administered group (ARE250) and (v) UVB+10 […] tilianin-administered group (T10). After one week of acclimatization, oral administrations of ARE and tilianin were performed daily for 12 weeks. In this case, the hairless mice belonging to the CON group and the UVB groups were orally administered with saline instead of the samples. The hairless mice of the remaining groups except the CON group were irradiated with UVB, and the UVB irradiation was carried out using UV crosslinker CL-1000M (UVP) toward the back 3 times per week. […]
(§2) Specifically, mRNA was isolated from the skin tissues of each group in Example 2-1 using RNAISO™ Plus (Takara). The mRNA was quantified using the NANODROP™ 1000 spectrophotometer (Thermo Fisher Scientific Inc.). […]

HAS3 = HAS3 mRNA expression in skin tissue (RT-PCR) of UVB-irradiated hairless mice; conditions: oral administration, 12 weeks, compared to the UVB-treated group
Procedure: as §1, §2

HAS1 = HAS1 mRNA expression in skin tissue (RT-PCR) of UVB-irradiated hairless mice; conditions: oral administration, 12 weeks, compared to the UVB-treated group
Procedure: as §1, §2

hyaluronic acid = assay: Hyaluronic acid concentration in skin homogenate (ELISA) of UVB-irradiated hairless mice; conditions: UVB+T10 group: 10 mg/kg/week oral, 12 weeks
Procedure: as §1, with “samples.” for “samples. The hairless mice of the remaining groups except the CON group were irradiated with UVB, and the UVB irradiation was carried out using UV crosslinker CL-1000M (UVP) toward the back 3 times per week.”
Specifically, the skin tissues of the hairless mice of each group in Example 2-1 were homogenized with NP40 lysis buffer (Elpis Biotech, Daejeon, Korea). The concentration of hyaluronic acid in the homogenate was determined using the hyaluronic acid quantikine ELISA Kit (R&D Systems, Minneapolis, Minn., USA) according to the manufacturer's protocol. Absorbance was read at 450 nm using the VERSAMAX™ variable microplate reader (Molecular Devices, Inc., Sunnyvale, Calif., USA).

[1] = system: UVB-irradiated hairless mice; assay: Skin moisture content (Corneometer) on the dorsal skin of UVB-irradiated hairless mice; conditions: T10 group: 10 mg/kg/week oral, 12 weeks
Procedure: as §1, with “weeks.” for “weeks. In this case, the hairless mice belonging to the CON group and the UVB groups were orally administered with saline instead of the samples. The hairless mice of the remaining groups except the CON group were irradiated with UVB, and the UVB irradiation was carried out using UV crosslinker CL-1000M (UVP) toward the back 3 times per week.”
(§3) Before anesthetizing the hairless mice, the moisture content and the degree of transepidermal water loss (TEWL) were measured on the dorsal section of the hairless mice. Moisture content was measured using CORNEOMETER® 825 (CK Electronics GmbH) at a pressure of 1.1 to 1.5 N after contacting a probe to the skin surface. The TEWL which represents the amount of the evaporation of transepidermal water in the process of damage and recovery of a skin barrier was measured under conditions of 20 to 25° C. and 40 to 60% humidity using TEWAMETER® TM300 (CK Electronics GmbH) equipped with MULTI PROBE ADAPTER® MPA5 (CK Electronics GmbH).

[2] = system: UVB-irradiated hairless mice; assay: Transepidermal water loss (TEWL, Tewameter) on the dorsal skin of UVB-irradiated hairless mice; conditions: ARE 100/250 mg/kg/day or tilianin 10 mg/kg/week oral, 12 weeks, vs UVB group
Procedure: as §1, with “weeks.” for “weeks. In this case, the hairless mice belonging to the CON group and the UVB groups were orally administered with saline instead of the samples. The hairless mice of the remaining groups except the CON group were irradiated with UVB, and the UVB irradiation was carried out using UV crosslinker CL-1000M (UVP) toward the back 3 times per week.”
as §3

## COc1ccc(-c2cc(=O)c3c(O)cc(O[C@@H]4O[C@H](CO)[C@@H](O)[C@H](O)[C@H]4O)cc3o2)cc1 [tilianin]
HAS2
  mRNA expression level of HAS2: significantly increased
HAS3
  mRNA expression level of HAS3: significantly increased
HAS1
  mRNA expression level of HAS1: significantly increased
Hyaluronic acid
  content of hyaluronic acid, increase compared to the UVB-treated group: 42.26%
[1]
  moisture content in the skin: restored to normal levels
[2]
  TEWL (transepidermal water loss): decreased to a significant level
